Test results reported in article PMC8791944, “GLUT3 inhibitor discovery through in silico ligand screening and in vivo validation in eukaryotic expression systems” (Scientific Reports, 2022).

What follows are compounds tested on Caco-2 (colon cancer) cells (assay: MTT cancer cell viability assay, Caco-2). Settings: Homo sapiens, Caco-2, 48 h.
Type: cell-based
Description: A possible therapeutic application of GLUT3 inhibitors is in oncology, especially for cancers in which GLUT3 is a poor prognosis marker. We tested the effect of GLUT3 inhibitors on the cell viability of several different cancer lines: myeloid leukemia (HL60 and U937), lung cancer (A549), colorectal adenocarcinoma (Caco-2), breast cancer (MCF7), hepatocellular carcinoma (HepG2), and choriocarcinoma (BeWo) cells. GLUT3 inhibitors, at five different concentrations, ranging from 2 to 100 µM, were incubated with cancer cells for 48 h. Then, cell viability was assessed with the MTT assay. […] G3iC and G3iD also affected the leukemia cell lines but at double the concentrations of G3iB and G3iE. […] G3iB had some cytotoxic activity (CC50 < 50 µM) against the highest number of cancer cell lines (HL60, U937, A549, HepG2, and MCF7).
Cancer cell viability in the presence of GLUT3 inhibitors was assayed using the MTT Cell Viability Kit (Biotium Inc, Freemont, CA) according to manufacturer’s instructions. Cancer cells were grown in the corresponding medium, at 37 °C and 5% CO2 in a humidified incubator. The media (Gibco) for leukemia cells (HL60 and U937), A549, MCF7, BeWo, and HepG2 cells were RPMI 1640, Ham’s F-12K, DMEM:F-12, Ham’s F-12K, and EMEM, respectively, all supplemented with 10% (v/v) fetal bovine serum (HyClone). Caco-2 cells were grown in EMEM supplemented with 20% (v/v) fetal bovine serum. Cells were detached from the culture flasks with Accutase (Innovative Cell Technologies, Inc., San Diego, CA) according to manufacturer’s instructions. Cells were seeded in 96-well plates, at a density of ~ 30,000 cells/well (in 100 µl fresh media) and incubated with varying concentrations of GLUT3 inhibitors for 48 h, at 37 °C and 5% CO2 in a humidified incubator. The inhibitors were dissolved in DMSO, at 100× the final concentration, so that 1 µl of the stock inhibitor concentration was added per well, making the final DMSO concentration 1% (v/v). Therefore, controls for 100% cell viability were cells with 1% (v/v) DMSO without the inhibitors. Controls for 0% cell viability were cells treated with 0.3% (v/v) Tween 20. For MTT assay, 10 µl of MTT reagent was added in each well followed by 3–4 h incubation at 37 °C and 5% CO2 in a humidified incubator. After thoroughly mixing in 200 µl DMSO in each well, the plates were put into a plate reader (BioTek Synergy H1), and the absorbances at 570 nm and 630 nm were measured with Gen5 program (BioTek Inc.). The experimental values represent Abs570 nm-Abs630 nm with each inhibitor condition and control being the average of three wells.
Supplementary Figure S8. Effect of GLUT3 inhibitors on the viability of various cancer cell lines. Cell viability was determined by MTT assay in A549 (lung cancer), BeWo (choriocarcinoma), Caco-2 (colon cancer), HepG2 (liver cancer), HL-60 (leukemia), MCF7 (breast cancer), and U937 (histiocytic lymphoma) cell lines. GLUT3 inhibitors at concentrations of 2, 5, 10, 20, 50, and 100 µM were incubated with cells in 96-well plates for 48 hours before the addition of the MTT reagent.
For COc1ccccc1-n1c(/C=C/c2ccc(O)cc2)nc2ccc(Br)cc2c1=O [G3iB, 6-bromo-2-[(E)-2-(4-hydroxyphenyl)ethenyl]-3-(2-methoxyphenyl)quinazolin-4(3H)-one], the CC50 was greater than 50 µM.

Same assay, conditions: Homo sapiens, Caco-2; Caco2, 48 h, MTT; read-out: CC50
Cc1cc(NC(=O)CCC2Cc3ccccc3NC2=O)nc(-c2ccccc2)n1 (stereo not drawn) [G3iD] gave a CC50 greater than 100 µM.
Compound O=C(Nc1cccc(Cl)c1)c1cccc(NC(=O)c2cccc([N+](=O)[O-])c2)c1 [G3iE, N-{3-[(3-chloroanilino)carbonyl]phenyl}-3-nitrobenzamide] has a CC50 greater than 50 µM.
Compound Cc1ccccc1CN(Cc1nnc(C(C)(C)C)o1)c1ccc2nc(O)[nH]c2c1 [G3iF] has a CC50 greater than 100 µM.
Compound Cc1cccnc1OC1CCN(c2cc(N3CCCC3CO)ncn2)CC1 (stereo not drawn) [G3iC] has a CC50 greater than 100 µM.
CC(=O)Nc1ccc(S(=O)(=O)Nc2ccc(Nc3cc(N(C)C)nc(C)n3)cc2)cc1 [G3iA, N-(4-{[(4-{[6-(dimethylamino)-2-methylpyrimidin-4-yl]amino}phenyl)amino]sulfonyl}phenyl)acetamide] was tested, and the CC50 was greater than 100 µM.
